In patent publication US20070148710A1, “Cpt resistant cell line” (priority 2003, published 2007):
≈ marks a conversion by molar mass, not a printed value. Blank lines part the entries; values can stand above or below the compound they belong to.

Columns and labels:
Format in all cases: cell-based, human
SW948CPTH = assay: cell proliferation assay, cross-resistance to topoisomerase I and II inhibitors; conditions: for change in resistance of SW948CPTH cells compared to the parental cell line SW948: IC50 by cell proliferation assay (Table 3); for IC50: Homo sapiens, read-out: Sensitivity expressed as IC50
Source text: (§1) Drug resistance to other topoisomerase I and II inhibitors was examined by determining the IC50 dose of each drug using a cell proliferation assay as shown in Table 3.

SW948 = assay: as above; conditions: SW948 parental, mean ± SD, 2-4 independent assays; for IC50: Homo sapiens, read-out: Sensitivity expressed as IC50
Source text: as §1

SW948CPTH cells [1] = assay: change of CPT-11 IC50 (clonogenic assay) by verapamil, amiloride or EIPA
Protocol: (§2) 10. […] Cells were washed, trypsinized, and counted. Cell pellets were lysed with water and sonicated. […] Results were generated from three independent experiments. […] Data are expressed as mean±SD. […] Data are the mean±SD of two experiments done in triplicate.
12. […] Cells were plated on glass coverslips and cultured overnight. Intracellular pH was measured with a fluorescence spectrophotometer after cells were loaded with the pH-sensitive fluorescence dye, BCECF. The data represent the mean±SD of 60 individual cells. […] After 24 h the drugs were removed, cells washed with PBS and drug-free culture medium added to the cell cultures. Data represent the mean±SD from three assays done in triplicate with SW948CPTH cells and two assays done in triplicate for SW948CPTL cells.

SW948CPTH cells [2] = assay: intracellular pH (BCECF fluorescence)
Protocol: 12. […] Cells were plated on glass coverslips and cultured overnight.

SW948CPTL = assay: cell proliferation assay, cross-resistance to topoisomerase I and II inhibitors
Source text: as §1

SW948 cell line = assay: SN38 IC50 determination
SW948CPTH cell line = assay: SN38 IC50 determination
SW948CPTL cell line = assay: SN38 IC50 determination
SW948CPTH cells [3] = assay: intracellular accumulation of CPT-11 (HPLC), effect of verapamil; conditions: SW948CPTH; 10 μM verapamil with CPT-11 160 μM, 2 hours
Source text: as §2
(§3) Additionally, multidrug resistance can be evaluated by measuring the expression level of p-glycoprotein (p-gp) (Juliano et al Biochim Biophys Acta 11:152-162, 1976) and breast cancer resistant protein (BCRP) (Doyle et al Proc Natl Acad Sci U S A 95:15665-15670, 1998) in SW948 and the resistant SW948 cell lines (SW948CPTH and SW948CPTL). It is understood that the disclosed methods can also be used with other cell lines including other colon cancer cell lines. For example, the disclosed methods can be used with LS174T, WiDr, HT-29, SW403, DLD-1, SW480, SNU-C1, Caco-2, and COLO 205 cell lines.

SW948CPTL cells = assay: as above; conditions: SW948CPTL
Source text: as §2, §3

SMILES: CC[C@@]1(O)C(=O)OCc2c1cc1n(c2=O)Cc2cc3cc(O)ccc3nc2-1 [10-OH-CPT]
change in resistance of SW948CPTH cells compared to the parental cell line SW948 (SW948CPTH): increased resistance | Sensitivity expressed as IC50 (SW948CPTH; SW948CPTH treated with 20 μg/ml CPT-11 for 62 days, then >22 days without CPT-11, mean ± SD): 2.1 ± 1.0 µg/mL | Sensitivity expressed as IC50 (SW948): 0.4 ± 0.3 µg/mL

SMILES: N=C(N)NC(=O)c1nc(Cl)c(N)nc1N [Amiloride]
effect on resistance of the cells to CPT-11 (SW948CPTH cells [1]; SW948CPTH, amiloride 300 μM with CPT-11 24 h (FIG. 8B)): decreased the resistance | effect on intracellular pH (SW948CPTH cells [2]): lowered | intracellular pH in the presence of amiloride (SW948CPTH cells [2]; from about 6.98 without amiloride (FIG. 8A)): about 6.85

SMILES: CC[C@@]1(O)C(=O)OCc2c1cc1n(c2=O)Cc2cc3ccccc3nc2-1 [CPT]
IC50 (SW948CPTH): 0.6 ± 0.6 µg/mL (≈ 1.72 µM) | change in resistance of SW948CPTH cells compared to the parental cell line SW948 (SW948CPTH): increased resistance | IC50 (SW948): 0.1 ± 0.1 µg/mL (≈ 0.287 µM)

SMILES: CCN(c1nc(N)c(C(=O)N=C(N)N)nc1Cl)C(C)C [EIPA, 5-(N-ethyl-N-isopropyl)amiloride]
effect on resistance of cells to CPT-11 (SW948CPTH cells [1]; EIPA 3 or 10 μM with CPT-11 24 h, FIG. 8B covers SW948CPTH and SW948CPTL): decreased the resistance

IC50 (SW948CPTH): 0.9 ± 0.1 µg/mL (≈ 1.53 µM) | IC50 (SW948CPTL; Homo sapiens, read-out: Sensitivity expressed as IC50): 1.8 ± 0.3 µg/mL (≈ 3.06 µM)
SMILES: COc1cc([C@@H]2c3cc4c(cc3[C@@H](O[C@@H]3O[C@@H]5CO[C@@H](C)O[C@H]5[C@H](O)[C@H]3O)[C@H]3COC(=O)[C@H]23)OCO4)cc(OC)c1O [Etoposide]
change in resistance of SW948CPTH cells compared to the parental cell line SW948 (SW948CPTH): no change in resistance | increase in resistance by SW948CPTL cells compared to the parental cell line SW948 (SW948CPTL; IC50 by cell proliferation assay (Table 3)): 2 fold | IC50 (SW948): 0.9 ± 0.1 µg/mL (≈ 1.53 µM)

IC50 (SW948CPTH): 0.8 ± 0.2 µg/mL (≈ 3.3 µM)
SMILES: CC1(C)CCC2=C(O1)c1ccccc1C(=O)C2=O [Lapachone]
change in resistance of SW948CPTH cells compared to the parental cell line SW948 (SW948CPTH): No change | IC50 (SW948): 1.1 ± 0.2 µg/mL (≈ 4.54 µM)

SMILES: CCc1c2c(nc3ccc(O)cc13)-c1cc3c(c(=O)n1C2)COC(=O)[C@]3(O)CC [SN38]
SN38 IC50 (SW948 cell line): 0.2 ± 0.01 µg/mL | SN38 IC50 (SW948CPTH cell line): 1.5 ± 0.1 µg/mL | SN38 IC50 (SW948CPTL cell line): 1.8 ± 0.2 µg/mL

SMILES: COc1ccc(CCN(C)CCCC(C#N)(c2ccc(OC)c(OC)c2)C(C)C)cc1OC (stereo not drawn) [Verapamil]
effect on intracellular concentration of CPT-11 (SW948CPTH cells [3]): increased the intracellular concentration of CPT-11 to a level similar to the SW948 parent cells | intracellular concentration of CPT-11 with verapamil relative to SW948 parent cells (SW948CPTL cells; 10 μM verapamil): 2.4 times | effect on intracellular concentration of CPT-11 (SW948CPTL cells; 10 μM verapamil with CPT-11 160 μM, 2 hours): increased
